Source: EP0998477B1, “Alkyl-4-silylheterocyclic phenols and thiophenols as antioxidant agents” (priority 1997, dated 1998)
pIC50: −log10 of the molar value. Read-outs that look alike come from different tables or passages of the source.

Tests used:
serum lipids [1] = experiment: In vivo screening in rats: TBARS assay on serum (CuSO4-initiated oxidation); set-up: species or system Male Sprague-Dawley rats; conditions: thiobarbituric acid reactive substances (nmoles MDA) in serum, percent of control; diet 0.3% for 4 days, N = 5 rats
From the text: A typical experiment consists of 4-6 groups of rats (N = 5 per group) with 1 group being a control which receives no MDL compound and the other groups being treated with 0.3% MDL compound. Some of the compounds are either repeated at 0.3% or evaluated again at the lower dose of 0.1 %. House Male Sprague-Dawley rats, 50-100 g, (Harlan Laboratories, Indianapolis, IN) in groups of 5, feeding ad libitum water and Purina Rodent chow (#5002) with or without MDL compound as a dietary admixture for 4 days. Make dietary admixtures (0.3%) by mixing 1.2 grams of an MDL compound with 400 grams of Purina rodent chow (#5002). Mix the MDL compound with approximately 50 grams of food using a mortar and pestle. This is added to the remainder of the food and mixed for 3 hours on a rotary mixer. In the morning of day 5, anesthetize non-fasted rats with carbon dioxide, and collect blood by cardiac puncture. […] Deaths are recorded as mortality. […]
In this assay the oxidation of serum lipids is initiated with CuSO4, resulting in the formation of aldehydes, such as malondialdehyde (MDA). Upon incubation with thiobarbituric acid, the absorbance of the aldehydes can be detected at 530-540 nm. […] Measure absorbances at 540 nm using a Biotek model EL311 microplate reader. The nmoles of MDA produced are calculated from a standard curve of 0 to 10 nmoles of MDA prepared from malonaldehyde bis(dimethylacetal). […]

VCAM-1 = experiment: Inhibition of cytokine-induced VCAM-1 expression in proliferating HUVEC (cell-surface ELISA); type: cell-based; conditions: Homo sapiens, coincubated with tumor necrosis factor-alpha and compound for 20 hr, average of two runs
Experimental: Plate proliferating human umbilical vein endothelial cells (HUVEC) or human aortic smooth muscle cells (HASMC) from Clonetics (San Diego, CA) onto 96-well plates in 100 µL medium per well at 20,000 cells per cm^2. Maintain the cultures in growth medium (EGM or SMGM2, Clonetics, San Diego, CA) for two days prior to addition of cytokines or drugs. Add cytokines plus or minus compounds for 20 to 24 hours prior to analysis for adhesion molecule levels. Add tumor necrosis factor (Genzyme, Cambridge, MA) to cultures at 500-1000 units/mL to stimulate adhesion molecule expression. Add interleukin-4 (GIBCO-BRL, Gaithersburg, MD) to cultures at 100-200 pg/mL to stimulate VCAM-1 expression. […] Remove the culture medium, and wash the monolayers twice with Hanks buffered saline solution (HBSS) at room temperature. Add the primary antibody (anti-human VCAM-1 from Upstate Biotechnology, Inc., Lake Placid, NY or anti-human ICAM-1 from Immunotech, Inc., Westbrook, ME) to each well (1 µg/mL in HBSS plus 5% newborn calf serum, GIBCO-BRL, Gaithersburg, MD) and incubate at 37°C for 1 hr. Wash the wells twice with HBSS, then add 100 µL of a 1/1000 dilution of goat anti-mouse IgG conjugated to horse radish peroxidase (BioRad, Hercules, CA) in HBSS plus 5% newborn calf serum to each well and incubated for 1 hr at 37°C. […] Measure absorbance at 450 nm with a plate reader. […]

ICAM-1 = experiment: Inhibition of cytokine-induced ICAM-1 expression in proliferating HUVEC (cell-surface ELISA); type: cell-based, human
Experimental: Plate proliferating human umbilical vein endothelial cells (HUVEC) or human aortic smooth muscle cells (HASMC) from Clonetics (San Diego, CA) onto 96-well plates in 100 µL medium per well at 20,000 cells per cm^2. Maintain the cultures in growth medium (EGM or SMGM2, Clonetics, San Diego, CA) for two days prior to addition of cytokines or drugs. Add cytokines plus or minus compounds for 20 to 24 hours prior to analysis for adhesion molecule levels. Add tumor necrosis factor (Genzyme, Cambridge, MA) to cultures at 500-1000 units/mL to stimulate adhesion molecule expression. Add interleukin-4 (GIBCO-BRL, Gaithersburg, MD) to cultures at 100-200 pg/mL to stimulate VCAM-1 expression. […] Remove the culture medium, and wash the monolayers twice with Hanks buffered saline solution (HBSS) at room temperature. Add the primary antibody (anti-human VCAM-1 from Upstate Biotechnology, Inc., Lake Placid, NY or anti-human ICAM-1 from Immunotech, Inc., Westbrook, ME) to each well (1 µg/mL in HBSS plus 5% newborn calf serum, GIBCO-BRL, Gaithersburg, MD) and incubate at 37°C for 1 hr. Wash the wells twice with HBSS, then add 100 µL of a 1/1000 dilution of goat anti-mouse IgG conjugated to horse radish peroxidase (BioRad, Hercules, CA) in HBSS plus 5% newborn calf serum to each well and incubated for 1 hr at 37°C. Wash the wells three times with HBSS, then add 100 µL of TMB substrate (BioRad, Hercules, CA) to each well. Stop the reaction after blue color develops by addition of 50 µL of 1 N H2SO4. Measure absorbance at 450 nm with a plate reader.
The IC50 value is defined as the drug concentration that inhibits the cytokine-induced adhesion molecule expression by 50%. Maximal values for adhesion molecule expression in cytokine-induced cultures was subtracted from the basal level of adhesion molecule expression (minus cytokines) in the cultures to detoermine the level of induction. Each drug concentration was tested in quadruplicate wells. […]

[2] = male, Sprague-Dawley, rat, in vivo
From the text: (§1) A typical experiment consists of 4-6 groups of rats (N = 5 per group) with 1 group being a control which receives no MDL compound and the other groups being treated with 0.3% MDL compound. Some of the compounds are either repeated at 0.3% or evaluated again at the lower dose of 0.1 %. House Male Sprague-Dawley rats, 50-100 g, (Harlan Laboratories, Indianapolis, IN) in groups of 5, feeding ad libitum water and Purina Rodent chow (#5002) with or without MDL compound as a dietary admixture for 4 days. Make dietary admixtures (0.3%) by mixing 1.2 grams of an MDL compound with 400 grams of Purina rodent chow (#5002). Mix the MDL compound with approximately 50 grams of food using a mortar and pestle. This is added to the remainder of the food and mixed for 3 hours on a rotary mixer. In the morning of day 5, anesthetize non-fasted rats with carbon dioxide, and collect blood by cardiac puncture. Sacrifice rats by cervical dislocation. Record body weights and liver weights in grams. Record food consumption as grams • day^-1 • rat^-1. Deaths are recorded as mortality. Use aliquots of fresh serum for clinical chemistries, thiobarbituric acid reactive substances (TBARS) and conjugated diene measurements. Freeze aliquots of serum (∼ 0.5mL) and whole livers at -20°C for compound and metabolite concentration determination at a later time.
Determine serum and liver concentrations of parent compound and the metabolites, bisphenol and diphenoquinone, by reverse phase HPLC using a Waters 990 Powerline system. Homegenize livers (1 gram samples) with 5.0mL PBS, pH 7.4, using a Polytron tissue homogenizer at setting 5 for 20-30 seconds. Extract serum or liver homogenates as follows: add 100µL of either serum or homogenate to 2.0mL diethyl ether: ethanol (3:1) while vortexing the tube. Cap the sample tubes and centrifuge for 10 min at 5°C at 3500 rpm in a Beckman GPKR centrifuge with a GH 3.7 rotor. Transfer the supematants to clean tubes and dry under N2. Reconstitute samples with 200µL of acetonitrile : hexane: 0.1 M ammonium acetate (90: 6.5 : 3.5, by vol.). Then, inject 100µL onto a Waters Deltapak C18-300 Å column, and elute with an 83% acetonitrile : 17% water mobile phase at a flow rate of 1.5mL/min. Record absorbances at the wavelengths of 240, 254, and 420nm. Calculate compound concentrations from known quantities of authentic parent compounds after correction for recovery. […]. Calculate concentrations as µg/mL of serum and µg/g of liver.

[3] = In vivo screening in rats: serum clinical chemistries; set-up: species or system Male Sprague-Dawley rats; conditions: percent of control, diet 0.3% for 4 days, N = 5 rats; for ALT: alanine aminotransferase in serum; for ALP: alkaline phosphatase in serum; for AST: aspartate aminotransferase in serum; for GLUC: glucose in serum; for CHOL: total cholesterol in serum; for TRIG: triglycerides in serum
From the text: as §1
Allow blood to clot at room temperature for 30 minutes. Obtain serum after centrifugation for 10 min at 4°C at 3000 rpm in a Beckman J-6M/E centrifuge with a JS-4.2 rotor. Analyze fresh serum by a COBAS MIRA S autoanalyzer (Roche Diagnostics) using Roche diagnostic reagents for the following clinical chemistry measurements: alkaline phosphatase (ALP, kit # 44553), alanine transaminase (ALT, kit # 42375), aspartate aminotransferase (AST, kit # 42381), total cholesterol (CHOL, kit # 44334), triglyceride (TG, kit # 44120), and glucose (GLU, kit # 44558). Calculate ALP, ALT, and AST as units/L. Calculate cholesterol, triglycerides, and glucose as mg/dL.

[4] = In vivo screening in rats: animal parameters (food, body weight, liver weight, mortality); set-up: species or system Male Sprague-Dawley rats; conditions: diet 0.3% for 4 days, N = 5 rats; for mortality: deaths per group; for food: grams eaten per day per rat; for food / lw/bw / body wt.: percent of control; for lw/bw: liver weight/body weight; for body wt.: weight in grams
From the text: as §1

serum lipids [5] = experiment: In vivo screening in rats: conjugated diene lag phase of pooled serum; set-up: species or system Male Sprague-Dawley rats; conditions: mean of 2 determinations of pooled serum (N = 5), not normalized, Control = 61 min., diet 0.3% for 4 days
From the text: A typical experiment consists of 4-6 groups of rats (N = 5 per group) with 1 group being a control which receives no MDL compound and the other groups being treated with 0.3% MDL compound. Some of the compounds are either repeated at 0.3% or evaluated again at the lower dose of 0.1 %. House Male Sprague-Dawley rats, 50-100 g, (Harlan Laboratories, Indianapolis, IN) in groups of 5, feeding ad libitum water and Purina Rodent chow (#5002) with or without MDL compound as a dietary admixture for 4 days. Make dietary admixtures (0.3%) by mixing 1.2 grams of an MDL compound with 400 grams of Purina rodent chow (#5002). Mix the MDL compound with approximately 50 grams of food using a mortar and pestle. This is added to the remainder of the food and mixed for 3 hours on a rotary mixer. In the morning of day 5, anesthetize non-fasted rats with carbon dioxide, and collect blood by cardiac puncture. Sacrifice rats by cervical dislocation. Record body weights and liver weights in grams. Record food consumption as grams • day^-1 • rat^-1. Deaths are recorded as mortality. […]
Conjugated diene lag phase is another indicator of the oxidation of lipids. […] Measure the absorbances of all cuvettes and set the instrument baseline to zero using the lowest absorbing sample. […] Record the absorbance of each cuvette at 2 min intervals for a period of 840 min. […]

Row | Compound | TBARS (serum lipids [1]) [%] | pIC50 (VCAM-1) | pIC50 (ICAM-1; Homo sapiens, coincubated with tumor necrosis factor-alpha and compound for 20 hr, average of two runs, except MDL 107,695 where both values are shown, read-out: ICAM-1 IC50) | Liver Parent [2] [µg/g liver] | Serum Parent [2] | ALT [3] [%] | ALP [3] [%] | AST [3] [%] | GLUC [3] [%] | CHOL [3] [%] | TRIG [3] [%] | mortality [4] [%] | food [4] [%] | lw/bw [4] [%] | body wt. [4] [%] | CONJ. DIENE (serum lipids [5]) [min] | pIC50 (ICAM-1; Homo sapiens, 20 h, read-out: ICAM-1 IC50, HUVEC, coincubated with tumor necrosis factor-alpha and compound for 20 hr, average of two runs, except MDL 107,695 where both values are shown) | pIC50 (ICAM-1; read-out: ICAM-1 IC50, coincubated with tumor necrosis factor-alpha and compound for 20 hr, average of two runs, except MDL 107,695 where both values are shown)
1 | CC(C)(C)c1cc(OC[Si](C)(C)c2ccco2)cc(C(C)(C)C)c1O [MDL 106,939, Phenol, 2,6-bis(1,1-dimethylethyl)-4-[(2-furanyldimethylsilyl)methoxy]-] | 64 | 4.89 | 4.48 | 97.7 | 3.3 µg/mL of serum | 92 | 123 | 106 | 83 | 120 | 108 | 0 | 88 | 130 | 92 | 391 | – | –
2 | CC(C)(C)c1cc(OC[Si](C)(C)c2cccs2)cc(C(C)(C)C)c1O [MDL 107,965, Phenol, 2,6-bis(1,1-dimethylethyl)-4-[(dimethyl-2-thienylsilyl)methoxy]-] | 57 | – | – | 82 | 12.6 µg/mL of serum | 96 | 137 | 89 | 86 | 121 | 90 | 0 | 84 | 118 | 84 | 273 | 4.14 | < 4.00
